Legend:
Type in all cases: biochemical
[1] = biological target: T1, KRAS WT (Homo sapiens, UniProt P01116); test: HTRF KRAS-SOS1 interaction assay, wildtype KRAS; conditions: binned ≤2 μM / >2 μM, read-out: Inhibition of KRAS WT (IC50)
T1 construct: made in house; host or cells: E. coli, e.g. BL21 (DE3)
Outline: (§1)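 GST-tagged KRAS (WT or mutant) with anti-GST-Eu donor, mixed with His-hSOS1 and anti-6His-XL665 acceptor. Buffer ~5 mM HEPES pH 7.4, ~150 mM NaCl, ~1 mM DTT, 0.05% BSA, 0.0025% Igepal; incubated about 10 min or longer. HTRF 665/620 ratio, compounds in duplicate up to 10 μM, IC50 derived.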

[2] = biological target: T2, KRAS G12S (Homo sapiens, UniProt P01116, G12S); test: HTRF KRAS-SOS1 interaction assay, KRAS G12S; conditions: binned ≤2 μM / >2 μM, read-out: Inhibition of KRAS G12S (IC50)
T2 construct: made in house; host or cells: E. coli, e.g. BL21 (DE3)
T2 sequence (P01116 1-188 isoform P01116-2 G12S): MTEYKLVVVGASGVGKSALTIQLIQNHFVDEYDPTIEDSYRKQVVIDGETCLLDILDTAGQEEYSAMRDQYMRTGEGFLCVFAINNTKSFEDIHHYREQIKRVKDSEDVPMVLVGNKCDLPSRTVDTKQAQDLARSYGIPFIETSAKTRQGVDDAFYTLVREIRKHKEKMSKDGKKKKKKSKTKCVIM
Outline: as §1

[3] = biological target: T3, KRAS G12D (Homo sapiens, UniProt P01116, G12D); test: HTRF KRAS-SOS1 interaction assay, KRAS G12D; conditions: binned ≤2 μM / >2 μM, read-out: Inhibition of KRAS G12D (IC50)
T3 construct: made in house; host or cells: E. coli, e.g. BL21 (DE3)
T3 sequence (P01116 1-188 isoform P01116-2 G12D): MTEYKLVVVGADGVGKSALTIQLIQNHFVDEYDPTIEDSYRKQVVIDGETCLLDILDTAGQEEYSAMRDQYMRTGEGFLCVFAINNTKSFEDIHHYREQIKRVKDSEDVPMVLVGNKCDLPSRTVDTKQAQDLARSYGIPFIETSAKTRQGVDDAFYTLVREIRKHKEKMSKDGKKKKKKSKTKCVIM
Outline: as §1

[4] = biological target: T4, KRAS G12V (Homo sapiens, UniProt P01116, G12V); test: HTRF KRAS-SOS1 interaction assay, KRAS G12V; conditions: binned ≤2 μM / >2 μM, read-out: Inhibition of KRAS G12V (IC50)
T4 construct: made in house; host or cells: E. coli, e.g. BL21 (DE3)
T4 sequence (P01116 1-188 isoform P01116-2 G12V): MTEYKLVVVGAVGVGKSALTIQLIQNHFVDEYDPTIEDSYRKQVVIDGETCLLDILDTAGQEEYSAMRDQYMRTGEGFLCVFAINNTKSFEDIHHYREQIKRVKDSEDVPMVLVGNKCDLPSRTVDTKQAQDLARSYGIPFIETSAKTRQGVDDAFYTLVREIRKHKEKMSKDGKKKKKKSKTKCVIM
Outline: as §1

T1 sequence (P01116 1-188 isoform P01116-2): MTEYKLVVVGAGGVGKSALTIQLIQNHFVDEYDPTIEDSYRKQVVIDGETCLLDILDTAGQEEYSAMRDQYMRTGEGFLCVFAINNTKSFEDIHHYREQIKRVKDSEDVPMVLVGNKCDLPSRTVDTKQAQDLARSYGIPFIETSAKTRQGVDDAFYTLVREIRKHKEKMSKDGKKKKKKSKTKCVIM

IC50 [1] [nM]	IC50 [2] [nM]	IC50 [3] [nM]	IC50 [4] [nM]	Structure (SMILES)
≤ 2000	≤ 2000	> 2000	≤ 2000	C[C@@H]1CN(CC2(COc3nc4c5c(c(C(F)(F)F)c(-c6ccc(F)c7sc(N)c(C#N)c67)c(F)c5n3)OCCN4[C@H](C)c3cccnc3N)CC2)C[C@H](C)O1 [Compound 710, 2-amino-4-(4-((R)-1-(2-aminopyridin-3-yl)ethyl)-2-((1-(((2S,6R)-2,6-dimethylmorpholino)methyl)cyclopropyl)methoxy)-10-fluoro-8-(trifluoromethyl)-5,6-dihydro-4H-[1,4]oxazepino[5,6,7-de]quinazolin-9-yl)-7-fluorobenzo[b]thiophene-3-carbonitrile]
≤ 2000	≤ 2000	≤ 2000	≤ 2000	N#Cc1c(N)sc2c(F)ccc(-c3c(C(F)(F)F)c4c5c(nc(OC[C@@]67CCCN6C[C@H](F)C7)nc5c3F)N([C@H](CC3CC3)c3cccnc3N)CCO4)c12 (single isomer, unassigned) [Compound 753]
≤ 2000	≤ 2000	≤ 2000	≤ 2000	C[C@H](c1cccnc1N)N1CCOc2c(Br)c(-c3ccc(F)c4sc(N)c(C#N)c34)c(F)c3nc(OC[C@@]45CCCN4C[C@H](F)C5)nc1c23 (single isomer, unassigned) [Compound 858]
≤ 2000	≤ 2000	≤ 2000	≤ 2000	C[C@H](c1cccnc1N)N1CCOc2c(Cl)c(-c3ccc(F)c4sc(N)c(C#N)c34)c(F)c3nc(OC[C@@]45CCCN4C[C@@]4(CC4(F)F)C5)nc1c23 [Compound 740, 2-amino-4-((R)-4-((R)-1-(2-aminopyridin-3-yl)ethyl)-8-chloro-2-(((1S,7a'S)-2,2-difluorodihydro-1′H,3′H-spiro[cyclopropane-1,2′-pyrrolizin]-7a′ (5′H)-yl)methoxy)-10-fluoro-5,6-dihydro-4H-[1,4]oxazepino[5,6,7-de]quinazolin-9-yl)-7-fluorobenzo[b]thiophene-3-carbonitrile]
≤ 2000	≤ 2000	≤ 2000	≤ 2000	C=CC[C@H](c1cccnc1N)N1CCOc2c(Cl)c(-c3ccc(F)c4sc(N)c(C#N)c34)c(F)c3nc(OC[C@@]45CCCN4C[C@H](F)C5)nc1c23 (atropisomer, axis not shown; (aS)) [Compound 683, 2-amino-4-((R)-4-((R)-1-(2-aminopyridin-3-yl)but-3-en-1-yl)-8-chloro-10-fluoro-2-(((2R,7aS)-2-fluorotetrahydro-1H-pyrrolizin-7a (5H)-yl)methoxy)-5,6-dihydro-4H-[1,4]oxazepino[5,6,7-de]quinazolin-9-yl)-7-fluorobenzo[b]thiophene-3-carbonitrile]
> 2000	> 2000	> 2000	> 2000	C[C@H](c1cccnc1N)N1CCOc2c(C(F)(F)F)c(-c3ccc(F)c4sc(N)c(C#N)c34)c(F)c3nc(OCC4(CN5CCC(=C(F)F)CC5)CC4)nc1c23 (single isomer, unassigned) [Compound 884]
≤ 2000	≤ 2000	≤ 2000	≤ 2000	C=CCC(c1cccnc1N)N1CCOc2c(Cl)c(-c3ccc(F)c4sc(N)c(C#N)c34)c(F)c3nc(OC[C@@]45CCCN4C[C@H](F)C5)nc1c23 (mixture of isomers) [Compound 623, 2-amino-4-((9R)-4-(1-(2-aminopyridin-3-yl)but-3-en-1-yl)-8-chloro-10-fluoro-2-(((2R,7aS)-2-fluorotetrahydro-1H-pyrrolizin-7a (5H)-yl)methoxy)-5,6-dihydro-4H-[1,4]oxazepino[5,6,7-de]quinazolin-9-yl)-7-fluorobenzo[b]thiophene-3-carbonitrile]
≤ 2000	≤ 2000	≤ 2000	≤ 2000	N#Cc1c(N)sc2c(F)ccc(-c3c(Cl)c4c5c(nc(OC[C@@]67CCCN6C[C@H](F)C7)nc5c3F)N([C@H](/C=C/C3CC3)c3cccnc3N)CCO4)c12 [Compound 676, 2-amino-4-(4-((R,E)-1-(2-aminopyridin-3-yl)-3-cyclopropylallyl)-8-chloro-10-fluoro-2-(((2R,7aS)-2-fluorotetrahydro-1H-pyrrolizin-7a(5H)-yl)methoxy)-5,6-dihydro-4H-[1,4]oxazepino[5,6,7-de]quinazolin-9-yl)-7-fluorobenzo[b]thiophene-3-carbonitrile]
> 2000	> 2000	> 2000	> 2000	C[C@H](c1cc(F)cnc1N)N1CCOc2c(C(F)(F)F)c(-c3ccc(F)c4sc(N)c(C#N)c34)c(F)c3nc(OC[C@@]45CCCN4C[C@H](F)C5)nc1c23 (single isomer, unassigned) [Compound 682]
≤ 2000	≤ 2000	≤ 2000	≤ 2000	C[C@H](c1cccnc1N)N1CCOc2c(C(F)(F)F)c(-c3ccc(F)c4sc(N)c(C#N)c34)c(F)c3nc(OCC4(CN5CCC(=C(F)F)CC5)CC4)nc1c23 (single isomer, unassigned) [Compound 693]
≤ 2000	≤ 2000	≤ 2000	≤ 2000	N#Cc1c(N)sc2c(F)ccc(-c3c(Cl)c4c5c(nc(OC[C@@]67CCCN6C[C@H](F)C7)nc5c3F)N([C@H](C/C=C/C(F)(F)F)c3cccnc3N)CCO4)c12 [Compound 733, 2-amino-4-(4-((R,E)-1-(2-aminopyridin-3-yl)-5,5,5-trifluoropent-3-en-1-yl)-8-chloro-10-fluoro-2-(((2R,7aS)-2-fluorotetrahydro-1H-pyrrolizin-7a(5H)-yl)methoxy)-5,6-dihydro-4H-[1,4]oxazepino[5,6,7-de]quinazolin-9-yl)-7-fluorobenzo[b]thiophene-3-carbonitrile]
≤ 2000	≤ 2000	≤ 2000	≤ 2000	C[C@H](c1ccc(C#N)nc1N)N1CCOc2c(Cl)c(-c3ccc(F)c4sc(N)c(C#N)c34)c(F)c3nc(OC[C@@]45CCCN4C[C@H](F)C5)nc1c23 [Compound 851, 6-amino-5-((1R)-1-(9-(2-amino-3-cyano-7-fluorobenzo[b]thiophen-4-yl)-8-chloro-10-fluoro-2-(((2R,7aS)-2-fluorotetrahydro-1H-pyrrolizin-7a(5H)-yl)methoxy)-5,6-dihydro-4H-[1,4]oxazepino[5,6,7-de]quinazolin-4-yl)ethyl)picolinonitrile]
≤ 2000	≤ 2000	≤ 2000	≤ 2000	N#Cc1c(N)sc2c(F)ccc(-c3c(C(F)(F)F)c4c5c(nc(OC[C@@]67CCCN6C[C@@]6(CC6(F)F)C7)nc5c3F)N([C@H](CCC3CCOCC3)c3cccnc3N)CCO4)c12 [Compound 650, 2-amino-4-(4-((R)-1-(2-aminopyridin-3-yl)-3-(tetrahydro-2H-pyran-4-yl)propyl)-2-(((1S,7a′S)-2,2-difluorodihydro-1′H,3′H-spiro[cyclopropane-1,2′-pyrrolizin]-7a′(5′H)-yl)methoxy)-10-fluoro-8-(trifluoromethyl)-5,6-dihydro-4H-[1,4]oxazepino[5,6,7-de]quinazolin-9-yl)-7-fluorobenzo[b]thiophene-3-carbonitrile]
≤ 2000	≤ 2000	≤ 2000	≤ 2000	C[C@H](c1cccnc1N)N1CCOc2c(Cl)c(-c3ccc(F)c4sc(N)c(C#N)c34)c(F)c3nc(OC[C@@]45CCCN4CC(=C(F)F)C5)nc1c23 (atropisomer, axis not shown) [Compound 636, 2-amino-4-((R)-4-((R)-1-(2-aminopyridin-3-yl)ethyl)-8-chloro-2-(((S)-2-(difluoromethylene)tetrahydro-1H-pyrrolizin-7a (5H)-yl)methoxy)-10-fluoro-5,6-dihydro-4H-[1,4]oxazepino[5,6,7-de]quinazolin-9-yl)-7-fluorobenzo[b]thiophene-3-carbonitrile]
≤ 2000	≤ 2000	≤ 2000	≤ 2000	C[C@H](c1cccnc1N)N1CCOc2c(C(F)(F)F)c(-c3ccc(F)c4sc(N)c(C#N)c34)c(F)c3nc(OCC4(CN5[C@H](C)COC[C@@H]5C)CC4)nc1c23 (single isomer, unassigned) [Compound 763]
≤ 2000	≤ 2000	≤ 2000	≤ 2000	N#Cc1c(N)sc2c(F)ccc(-c3c(Cl)c4c5c(nc(OC[C@@]67CCCN6C[C@H](F)C7)nc5c3F)N([C@@H](c3cccnc3N)C(F)(F)F)CCO4)c12 [Compound 833, 2-amino-4-(4-((S)-1-(2-aminopyridin-3-yl)-2,2,2-trifluoroethyl)-8-chloro-10-fluoro-2-(((2R,7aS)-2-fluorotetrahydro-1H-pyrrolizin-7a(5H)-yl)methoxy)-5,6-dihydro-4H-[1,4]oxazepino[5,6,7-de]quinazolin-9-yl)-7-fluorobenzo[b]thiophene-3-carbonitrile]
≤ 2000	≤ 2000	≤ 2000	≤ 2000	C[C@H](c1cccnc1N)N1CCOc2c(Cl)c(-c3ncc(F)c4sc(N)c(C#N)c34)c(F)c3nc(OC[C@@]45CCCN4C[C@H](F)C5)nc1c23 (single isomer, unassigned) [Compound 825]
≤ 2000	≤ 2000	≤ 2000	≤ 2000	C[C@H](c1cccnc1N)N1CCOc2nc(-c3ccc(F)c4sc(N)c(C#N)c34)c(F)c3nc(OC[C@@]45CCCN4C[C@H](F)C5)nc1c23 (single isomer, unassigned) [Compound 619]

— patent publication US12668600B2 (Kumquat Biosciences Inc., priority 2023, dated 2026)
